Values quoted from earlier work, collected in patent US20260272898A1 (Bayer Aktiengesellschaft, priority 2024, published 2026).

Details: in vivo

In the case of `CCOc1ncc(C)c2c1[C@H](c1ccc(C#N)cc1OC)C(C(N)=O)=C(C)N2` [finerenone, (4S)-4-(4-cyano-2-methoxyphenyl)-5-ethoxy-2,8-dimethyl-1,4-dihydro-1,6-naphthyridine-3-carboxamide], the half-life is given as “short”.
